Measured values: patent US20080200454A1, “CARBON-LINKED TETRAHYDRO-PYRAZOLO-PYRIDINE MODULATORS OF CATHEPSIN S” (priority 2007, published 2008)
Like-named read-outs stand apart in the source and are kept apart here.

Target: Recombinant human cathepsin S (CatS) (Homo sapiens, UniProt P25774)
Assay: Recombinant human cathepsin S (CatS) inhibition assay, fluorogenic substrate Z-Valine-Valine-Arginine-AMC;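 note: Baculovirus-expressed CatS in pH 5.0 sodium acetate buffer with DTT and NaCl, fluorescence read each minute over 20 min, inhibition derived from rate slope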

Recombinant human cathepsin S (CatS), sequence (P25774 115-331): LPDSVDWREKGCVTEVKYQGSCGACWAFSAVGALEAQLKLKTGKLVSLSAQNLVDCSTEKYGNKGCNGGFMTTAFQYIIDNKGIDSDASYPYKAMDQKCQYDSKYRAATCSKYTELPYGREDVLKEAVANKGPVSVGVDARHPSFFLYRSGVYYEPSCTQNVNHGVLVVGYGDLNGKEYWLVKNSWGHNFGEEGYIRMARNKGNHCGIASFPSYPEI

| IC50 [nM] | Structure (SMILES) | IC50 (CatS IC50) [nM] |
| --- | --- | --- |
| 60 | NC(=O)N1CCc2c(c(-c3ccc(Cl)c(C#Cc4ccc(CNCc5ccc(Cl)cc5)cc4)c3)nn2CCCN2CCSCC2)C1 [Example 160, 3-(4-Chloro-3-{[4-({[(4-chlorophenyl)methyl]amino}methyl)phenyl]ethynyl}phenyl)-1-(3-thiomorpholin-4-ylpropyl)-1,4,6,7-tetrahydro-5H-pyrazolo[4,3-c]pyridine-5-carboxamide] | – |
| 70 | NC(=O)N1CCc2c(c(-c3ccc(Cl)c(C#Cc4ccc(COCc5cccnc5)cc4)c3)nn2CCCN2CCSCC2)C1 [Example 161, 3-{4-Chloro-3-[(4-{[(pyridin-3-ylmethyl)oxy]methyl]phenyl)ethynyl]phenyl}-1-(3-thiomorpholin-4-ylpropyl)-1,4,6,7-tetrahydro-5H-pyrazolo[4,3-c]pyridine-5-carboxamide] | – |
| 90 | NC(=O)N1CCc2c(c(-c3ccc(Cl)c(C#Cc4ccc(C(=O)NCc5cccnc5)cc4)c3)nn2CCCN2CCSCC2)C1 [Example 162, 3-{4-Chloro-3-[(4-{[(pyridin-3-ylmethyl)amino]carbonyl}phenyl)ethynyl]phenyl}-1-(3-thiomorpholin-4-ylpropyl)-1,4,6,7-tetrahydro-5H-pyrazolo[4,3-c]pyridine-5-carboxamide] | – |
| – | NC(=O)N1CCc2c(c(-c3ccc(Cl)c(C#Cc4ccc(C(=O)N5CCCC5)cc4)c3)nn2CCCN2CCSCC2)C1 [Example 164, 3-(4-Chloro-3-{[4-(pyrrolidin-1-ylcarbonyl)phenyl]ethynyl}phenyl)-1-(3-thiomorpholin-4-ylpropyl)-1,4,6,7-tetrahydro-5H-pyrazolo[4,3-c]pyridine-5-carboxamide] | 730 |
| 830 | NC(=O)N1CCc2c(c(-c3ccc(Cl)c(C#Cc4ccc(CN5CCC(N6CCCC6=O)CC5)cc4)c3)nn2CCCN2CCSCC2)C1 [Example 165, 3-{4-Chloro-3-[(4-{[4-(2-oxopyrrolidin-1-yl)piperidin-1-yl]methyl}phenyl)ethynyl]phenyl}-1-(3-thiomorpholin-4-ylpropyl)-1,4,6,7-tetrahydro-5H-pyrazolo[4,3-c]pyridine-5-carboxamide] | – |
| 2520 | Clc1ccc(CNCc2ccc(C#Cc3cc(-c4nn(CCCN5CCOCC5)c5c4CNCC5)ccc3Cl)cc2)cc1 [Example 166, 1-[4-({2-Chloro-5-[1-(3-morpholin-4-ylpropyl)-4,5,6,7-tetrahydro-1H-pyrazolo[4,3-c]pyridin-3-yl]phenyl}ethynyl)phenyl]-N-[(4-chlorophenyl)methyl]methanamine] | – |
| 30 | CCNCc1cc(C#Cc2cc(-c3nn(CCCN4CCCCC4)c4c3CN(C(N)=O)CC4)ccc2Cl)ccc1Cl [Example 167, 3-[4-Chloro-3-({4-chloro-3-[(ethylamino)methyl]phenyl}ethynyl)phenyl]-1-(3-piperidin-1-ylpropyl)-1,4,6,7-tetrahydro-5H-pyrazolo[4,3-c]pyridine-5-carboxamide] | – |
| – | C[C@H]1COCCN1CCCn1nc(-c2ccc(Cl)c(C#Cc3ccc(Cl)c(C(=O)NCCN4CCOCC4)c3)c2)c2c1CCN(C(=O)C(N)=O)C2 [Example 168, 5-{[5-(5-[Amino(oxo)acetyl]-1-{3-[(3S)-3-methylmorpholin-4-yl]propyl}-4,5,6,7-tetrahydro-1H-pyrazolo[4,3-c]pyridin-3-yl)-2-chlorophenyl]ethynyl}-2-chloro-N-(2-morpholin-4-ylethyl)benzamide] | 30 |
| – | C[C@H]1COCCN1CCCn1nc(-c2ccc(Cl)c(C#Cc3ccc(C(=O)NCCN4CCOCC4)cc3)c2)c2c1CCN(C(=O)C(N)=O)C2 [Example 169, 4-{[5-(5-[Amino(oxo)acetyl]-1-{3-[(3S)-3-methylmorpholin-4-yl]propyl}-4,5,6,7-tetrahydro-1H-pyrazolo[4,3-c]pyridin-3-yl)-2-chlorophenyl]ethynyl}-N-(2-morpholin-4-ylethyl)benzamide] | 50 |
| – | NC(=O)N1CCc2c(c(-c3ccc(Cl)c(C#Cc4ccc(CNCc5ccc(Cl)cc5)cc4)c3)nn2CCCN2C[C@H]3COC[C@H]3C2)C1 [Example 170, 3-[4-Chloro-3-[(4-{[(4-chlorobenzyl)amino]methyl]phenyl)ethynyl]phenyl}-1-{3-[(3aR,6aS)-tetrahydro-1H-furo[3,4-c]pyrrol-5(3H)-yl]propyl}-1,4,6,7-tetrahydro-5H-pyrazolo[4,3-c]pyridine-5-carboxamide] | 50 |
| – | NC(=O)N1CCc2c(c(-c3ccc(Cl)c(C#Cc4cccc(CNCc5ccc(Cl)cc5)c4)c3)nn2CCCN2CCSCC2)C1 [Example 171, 3-(4-Chloro-3-{[3-({[(4-chlorophenyl)methyl]amino}methyl)phenyl]ethynyl}phenyl)-1-(3-thiomorpholin-4-ylpropyl)-1,4,6,7-tetrahydro-5H-pyrazolo[4,3-c]pyridine-5-carboxamide] | 200 |
| – | O=C(CO)N1CCc2c(c(-c3ccc(Cl)c(C#Cc4ccc(CNCc5ccc(Cl)cc5)cc4)c3)nn2CCCN2CCN(c3ccccc3)CC2)C1 [Example 172, 2-{3-(4-Chloro-3-{[4-({[(4-chlorophenyl)methyl]amino}methyl)phenyl]ethynyl}phenyl)-1-[3-(4-phenylpiperazin-1-yl)propyl]-1,4,6,7-tetrahydro-5H-pyrazolo[4,3-c]pyridin-5-yl}-2-oxoethanol] | 30 |
| – | Cc1ccc(CNCc2ccc(C#Cc3cc(-c4nn(CCCN5CCSCC5)c5c4CN(C(N)=O)CC5)ccc3Cl)cc2)cc1 [Example 173, 3-(4-Chloro-3-{[4-({[(4-methylphenyl)methyl]amino}methyl)phenyl]ethynyl}phenyl)-1-(3-thiomorpholin-4-ylpropyl)-1,4,6,7-tetrahydro-5H-pyrazolo[4,3-c]pyridine-5-carboxamide] | 120 |
| – | CC(C)Oc1ccc(CNCc2ccc(C#Cc3cc(-c4nn(CCCN5CCSCC5)c5c4CN(C(N)=O)CC5)ccc3Cl)cc2)cc1 [Example 174, 3-{4-Chloro-3-[(4-{[({4-[(1-methylethyl)oxy]phenyl}methyl)amino]methyl}phenyl)ethynyl]phenyl}-1-(3-thiomorpholin-4-ylpropyl)-1,4,6,7-tetrahydro-5H-pyrazolo[4,3-c]pyridine-5-carboxamide] | 270 |
| – | CN(C)c1ccc(CNCc2ccc(C#Cc3cc(-c4nn(CCCN5CCSCC5)c5c4CN(C(N)=O)CC5)ccc3Cl)cc2)cc1 [Example 175, 3-[4-Chloro-3-({4-[({[4-(dimethylamino)phenyl]methyl}amino)methyl]phenyl}ethynyl)phenyl]-1-(3-thiomorpholin-4-ylpropyl)-1,4,6,7-tetrahydro-5H-pyrazolo[4,3-c]pyridine-5-carboxamide] | 190 |
| – | NC(=O)N1CCc2c(c(-c3ccc(Cl)c(C#Cc4ccc(CNCc5ccc(OC(F)F)cc5)cc4)c3)nn2CCCN2CCSCC2)C1 [Example 176] | 230 |
| 10 | CS(=O)(=O)N1CCc2c(c(-c3ccc(Cl)c(C#Cc4ccc(CNCc5ccc(Cl)cc5)cc4)c3)nn2CCCN2CCC(c3ccccn3)CC2)C1 [Example 177, 1-{4-[(2-Chloro-5-{5-(methylsulfonyl)-1-[3-(4-pyridin-2-ylpiperidin-1-yl)propyl]-4,5,6,7-tetrahydro-1H-pyrazolo[4,3-c]pyridin-3-yl}phenyl)ethynyl]phenyl}-N-[(4-chlorophenyl)methyl]methanamine] | – |
| 10 | CS(=O)(=O)N1CCc2c(c(-c3ccc(Cl)c(C#Cc4ccc(CNCc5ccc(Cl)cc5)cc4)c3)nn2CCCN2CCC(c3ccccc3)CC2)C1 [Example 178, 1-{4-[(2-Chloro-5-{5-(methylsulfonyl)-1-[3-(4-phenylpiperidin-1-yl)propyl]-4,5,6,7-tetrahydro-1H-pyrazolo[4,3-c]pyridin-3-yl}phenyl)ethynyl]phenyl}-N-[(4-chlorophenyl)methyl]methanamine] | – |
| 20 | CS(=O)(=O)N1CCc2c(c(-c3ccc(Cl)c(C#Cc4ccc(CNCc5ccc(Cl)cc5)cc4)c3)nn2CCCN2CCN(c3ccccn3)CC2)C1 [Example 179, 1-{4-[(2-Chloro-5-{5-(methylsulfonyl)-1-[3-(4-pyridin-2-ylpiperazin-1-yl)propyl]-4,5,6,7-tetrahydro-1H-pyrazolo[4,3-c]pyridin-3-yl}phenyl)ethynyl]phenyl}-N-[(4-chlorophenyl)methyl]methanamine] | – |
| 20 | CS(=O)(=O)N1CCc2c(c(-c3ccc(Cl)c(C#Cc4ccc(CNCc5ccc(Cl)cc5)cc4)c3)nn2CCCN2CCN(c3ccccc3)CC2)C1 [Example 180, 1-{4-[(2-Chloro-5-{5-(methylsulfonyl)-1-[3-(4-phenylpiperazin-1-yl)propyl]-4,5,6,7-tetrahydro-1H-pyrazolo[4,3-c]pyridin-3-yl}phenyl)ethynyl]phenyl}-N-[(4-chlorophenyl)methyl]methanamine] | – |
| 60 | CS(=O)(=O)N1CCc2c(c(-c3ccc(Cl)c(C#Cc4ccc(CNCc5ccc(Cl)cc5)cc4)c3)nn2CCCN2CCCCC2)C1 [Example 181, 1-[4-({2-Chloro-5-[5-(methylsulfonyl)-1-(3-piperidin-1-ylpropyl)-4,5,6,7-tetrahydro-1H-pyrazolo[4,3-c]pyridin-3-yl]phenyl}ethynyl)phenyl]-N-[(4-chlorophenyl)methyl]methanamine] | – |
| – | C[C@H]1COCCN1CCCn1nc(-c2ccc(Cl)c(C#Cc3ccc(CNCc4ccc(Cl)cc4)cc3)c2)c2c1CCN(S(C)(=O)=O)C2 [Example 182, 1-[4-({2-Chloro-5-[1-{3-[(3S)-3-methylmorpholin-4-yl]propyl}-5-(methylsulfonyl)-4,5,6,7-tetrahydro-1H-pyrazolo[4,3-c]pyridin-3-yl]phenyl}ethynyl)phenyl]-N-[(4-chlorophenyl)methyl]methanamine] | 80 |
| – | CS(=O)(=O)N1CCc2c(c(-c3ccc(Cl)c(C#Cc4ccc(CNCc5ccc(Cl)cc5)cc4)c3)nn2CCCN2CCSCC2)C1 [Example 183, 1-[4-({2-Chloro-5-[5-(methylsulfonyl)-1-(3-thiomorpholin-4-ylpropyl)-4,5,6,7-tetrahydro-1H-pyrazolo[4,3-c]pyridin-3-yl]phenyl}ethynyl)phenyl]-N-[(4-chlorophenyl)methyl]methanamine] | 80 |
| – | CS(=O)(=O)N1CCc2c(c(-c3ccc(Cl)c(C#Cc4cccc(C=O)c4)c3)nn2CCCN2CCOCC2)C1 [Example 184, 3-({2-Chloro-5-[5-(methylsulfonyl)-1-(3-morpholin-4-ylpropyl)-4,5,6,7-tetrahydro-1H-pyrazolo[4,3-c]pyridin-3-yl]phenyl}ethynyl)benzaldehyde] | 320 |
